Values of other authors, collected in patent publication US9365837B2, “Peptide inhibitors of protein kinase C” (The Board of Trustees of the Leland Stanford Junior …, priority 2002, dated 2016).

Test system: Sprague-Dawley rats
Conditions: previously identified active in the assay

EAIVKQ (fragment derived from SEQ ID NO32) [SEQ ID NO:37, positive control εPKC antagonist, excluded from the peptides of the invention]
activity in the capsaicin assay (positive control): active
